In patent US10183973B2, “Solvate of cyclic peptide compound, preparation method for same, and uses thereof” (SHANGHAI TECHWELL BIOPHARMACEUTICAL CO., LTD, priority 2014, dated 2019):
*1 amine or outer side, *2 acyl side, *3 side chain or, on linkers, in order; H or OH if unused. Where a SMILES comes first, the peptide text is derived from it. Bridges are numbered along the chain shown (N, C = ends). [ ]: non-standard residue; d: D form. The star is where a group is joined. hTyr(3S-OH,4S-OH,3'-OSO3H) = N[C@H](C(=O)O)[C@H](O)[C@@H](O)c1ccc(O)c(OS(=O)(=O)O)c1; Orn(4R-OH,5R-OH) = O=C([C@H](C[C@@H](O)[C@@H](O)N[*:3])N[*:1])[*:2]; Pro(3S-OH,4S-Me) = C[C@H]1CN[C@H](C(=O)O)[C@H]1O; X1 = CCCCCOc1ccc(-c2cc(-c3ccc(C(=O)*)cc3)no2)cc1; Gln(3R-OH) = NC(=O)C[C@@H](O)[C@H](N)C(=O)O; Hyp = O=C(O)[C@@H]1C[C@@H](O)CN1

Experiment: Purity and stability test (HPLC purity after sealed storage at 25° C. for 30 days)
Format: physicochemical
Settings: for Purity of initial sample: HPLC purity before storage (baseline of stability test); for Purity of sample after stored ar 25° C. for 30 days: sealed, HPLC purity
Source text: High performance liquid chromatography (HPLC) is a common method for detecting the purity of a compound, wherein a liquid is used as the mobile phase and a high-pressure transfusion system is used for pumping the mobile phase, such as single solvents with different polarities or a mixture of solvents at different proportions, buffers, into a column packed with a stationary phase. Each component is separated in the column, and then enters into a detector for detection, thereby analyzing a sample. In the present invention, HPLC is used for determining the purity of the compound of formula I and studying the stability of a sample.
HPLC detection method is listed as follows:
Analysis Column: YMC-ODS 250×4.6 mm, 5 μm;
Mobile phase: acetonitrile:phosphate buffer (pH 3.0)=45:70;
Column temperature: 35° C.;
Diluent: aqueous phosphate buffer;
Detection wavelength: 210 nm;
In this Example, the purity and stability of samples obtained in Comparative Examples and Examples were compared. The used method is described as follows:
The solvate of the compound of formula I prepared in Examples 2, the crystal of B82 type obtained in Comparative Example 1 and amorphous solids obtained in Example 1 were taken and sealed at 25° C. for 30 days respectively. And then the content of impurities in the sample was analyzed. Results for comparing the stability of the solvate of the compound of formula I according to the present invention, the crystal of B82 type and the amorphous solid are shown in the following table: […]

| Compound | Purity of initial sample [%] | Purity of sample after stored ar 25° C. for 30 days [%] | stability compared with crystal of B82 type (solid-state stability, in words) |
| --- | --- | --- | --- |
| CCCCCOc1ccc(-c2cc(-c3ccc(C(=O)N[C@H]4C[C@@H](O)[C@@H](O)NC(=O)[C@@H]5[C@@H](O)[C@@H](C)CN5C(=O)[C@H]([C@H](O)CC(N)=O)NC(=O)[C@H]([C@H](O)[C@@H](O)c5ccc(O)c(OS(=O)(=O)[O-])c5)NC(=O)[C@@H]5C[C@@H](O)CN5C(=O)[C@H]([C@@H](C)O)NC4=O)cc3)no2)cc1.[Na+] [Amorphous solids, Micafungin Sodium] (X1-[Orn(4R-OH,5R-OH)]T[Hyp][hTyr(3S-OH,4S-OH,3'-OSO3H)][Gln(3R-OH)][Pro(3S-OH,4S-Me)]; lactam 1-C) | 99.38 | 89.27 | – |
| CCCCCOc1ccc(-c2cc(-c3ccc(C(=O)N[C@H]4C[C@@H](O)[C@@H](O)NC(=O)[C@@H]5[C@@H](O)[C@@H](C)CN5C(=O)[C@H]([C@H](O)CC(N)=O)NC(=O)[C@H]([C@H](O)[C@@H](O)c5ccc(O)c(OS(=O)(=O)[O-])c5)NC(=O)[C@@H]5C[C@@H](O)CN5C(=O)[C@H]([C@@H](C)O)NC4=O)cc3)no2)cc1.[Na+] [Crystal of B82 type, Micafungin Sodium] (X1-[Orn(4R-OH,5R-OH)]T[Hyp][hTyr(3S-OH,4S-OH,3'-OSO3H)][Gln(3R-OH)][Pro(3S-OH,4S-Me)]; lactam 1-C) | 99.50 | 96.98 | – |
| CCCCCOc1ccc(-c2cc(-c3ccc(C(=O)N[C@H]4C[C@@H](O)[C@@H](O)NC(=O)[C@@H]5[C@@H](O)[C@@H](C)CN5C(=O)[C@H]([C@H](O)CC(N)=O)NC(=O)[C@H]([C@H](O)[C@@H](O)c5ccc(O)c(OS(=O)(=O)[O-])c5)NC(=O)[C@@H]5C[C@@H](O)CN5C(=O)[C@H]([C@@H](C)O)NC4=O)cc3)no2)cc1.[Na+] [Solvate of the compound of formula I, Sodium 5-[(1S,2S)-2-[(3S,6S,9S,11R,15S,18S,20R,21R,24S,25S,26S)-3-[(R)-2-carbamoyl-1-hydroxyethyl]-11,20,21,25-tetrahydroxy-15-[(R)-1-hydroxyethyl]-26-methyl-2,5,8,14,17,23-hexaoxo-18-[4-[5-(4-pentoxyphenyl)isoxazol-3-yl]benzoylamino]-1,4,7,13,16,22-hexaazatricyclo[22.3.0.0^9,13]heptacosan-6-yl]-1,2-dihydroxyethyl]-2-hydroxy phenyl sulfate] (X1-[Orn(4R-OH,5R-OH)]T[Hyp][hTyr(3S-OH,4S-OH,3'-OSO3H)][Gln(3R-OH)][Pro(3S-OH,4S-Me)]; lactam 1-C) | 99.55 | 99.50 | better than that of the crystal of B82 type |
